Drawing on ChEMBL document CHEMBL1125619, “Effect of fluorine substitution on the adrenergic properties of 3-(tert-butylamino)-1-(3,4-dihydroxyphenoxy)-2-propanol” (J Med Chem, 1991), this text covers EC50 and Ki for four molecules.

What is called EC50 is the concentration needed to bring the measured effect to its halfway point. Lower therefore signals greater potency. In general, Ki refers to the equilibrium dissociation constant of an inhibitor or competing ligand from its target. Read a high Ki as weaker binding.

The target of experiment [1] is Beta-2 adrenergic receptor (Cavia porcellus, UniProt Q8K4Z4). As to the kind of experiment: Agonistic activity (beta2- adrenergic) for the percent maximal relaxation of isolated guinea pig trachea. In kind it is functional, tissue-based.
Experiment [2] deals with Beta-1 adrenergic receptor (Cavia porcellus, UniProt B0FL73). The experiment can be described thus: Agonistic activity (beta-1 adrenergic receptor) for the percent maximal increase in contraction rate of isolated guinea pig atria. In kind it is functional.
Experiment [3] deals with Beta-1 adrenergic receptor (Rattus norvegicus, UniProt P18090).
Description: Compound was evaluated for the inhibition of binding of [3H]dihydroalprenolol from beta-1 adrenergic receptor of rat cerebral cortical membranes
For experiment [4], the target named is Adrenergic receptor beta (Rattus norvegicus, UniProt P18090+P10608+P26255). The experiment can be described thus: Beta adrenergic receptor agonistic activity for the stimulation of accumulation of cyclic AMP in cultured C6 glioma cells. In kind it is functional, cell-based.

Chain of Beta-2 adrenergic receptor (Q8K4Z4 whole entry): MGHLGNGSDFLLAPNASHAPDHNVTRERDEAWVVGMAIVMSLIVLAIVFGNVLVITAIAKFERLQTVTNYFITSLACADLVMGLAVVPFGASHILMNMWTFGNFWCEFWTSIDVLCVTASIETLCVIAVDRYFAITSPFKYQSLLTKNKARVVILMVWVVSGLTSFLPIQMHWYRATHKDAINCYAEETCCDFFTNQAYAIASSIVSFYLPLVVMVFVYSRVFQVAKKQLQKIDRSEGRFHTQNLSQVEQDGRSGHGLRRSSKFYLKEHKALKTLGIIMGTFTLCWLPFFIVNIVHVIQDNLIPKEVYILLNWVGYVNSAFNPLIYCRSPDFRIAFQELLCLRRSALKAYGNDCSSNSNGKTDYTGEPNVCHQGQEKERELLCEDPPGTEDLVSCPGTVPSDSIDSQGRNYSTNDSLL
Chain of Beta-1 adrenergic receptor (Rattus norvegicus, UniProt P18090) (P18090 whole entry): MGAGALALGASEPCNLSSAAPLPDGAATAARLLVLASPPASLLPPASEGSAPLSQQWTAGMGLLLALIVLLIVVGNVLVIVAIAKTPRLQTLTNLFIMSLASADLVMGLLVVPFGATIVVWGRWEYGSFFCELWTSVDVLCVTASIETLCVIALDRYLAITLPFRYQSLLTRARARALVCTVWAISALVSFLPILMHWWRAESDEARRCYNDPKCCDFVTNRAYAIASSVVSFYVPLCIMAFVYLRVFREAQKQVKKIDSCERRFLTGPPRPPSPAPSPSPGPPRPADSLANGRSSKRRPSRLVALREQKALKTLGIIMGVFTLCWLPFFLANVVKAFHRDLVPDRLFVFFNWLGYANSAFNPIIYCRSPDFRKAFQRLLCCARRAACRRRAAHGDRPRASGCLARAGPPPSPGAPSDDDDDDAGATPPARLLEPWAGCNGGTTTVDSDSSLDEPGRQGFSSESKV
Chain of Beta-1 adrenergic receptor (Cavia porcellus, UniProt B0FL73) (B0FL73 whole entry): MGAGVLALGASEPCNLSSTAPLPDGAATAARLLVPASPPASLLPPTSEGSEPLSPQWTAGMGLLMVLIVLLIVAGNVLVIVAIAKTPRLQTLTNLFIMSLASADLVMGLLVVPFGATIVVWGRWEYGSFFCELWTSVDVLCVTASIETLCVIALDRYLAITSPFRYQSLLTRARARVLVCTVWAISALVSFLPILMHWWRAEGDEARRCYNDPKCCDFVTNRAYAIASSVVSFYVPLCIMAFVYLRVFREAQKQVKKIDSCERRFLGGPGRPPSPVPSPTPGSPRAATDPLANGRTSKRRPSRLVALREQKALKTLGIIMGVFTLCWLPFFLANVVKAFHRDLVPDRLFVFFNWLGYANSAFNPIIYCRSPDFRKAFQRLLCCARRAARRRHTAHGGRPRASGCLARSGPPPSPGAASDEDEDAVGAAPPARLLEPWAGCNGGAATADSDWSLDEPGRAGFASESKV

On to `CC(C)(C)NCC(O)COc1ccc(O)c(O)c1F` (stereo not drawn), for which the EC50 in experiment [1] is 38 nM; in experiment [2] it was 8.6 nM; in experiment [4], 9.2 nM. The molecule further yielded a Ki in experiment [3] of 60 nM.
For `CC(C)(C)NCC(O)COc1cc(O)c(O)cc1F` (stereo not drawn) the same measures were over 10000 nM, 175 nM, >> 10000 nM and 87000 nM.
The corresponding values for `CC(C)(C)NCC(O)COc1ccc(O)c(O)c1` (stereo not drawn) are 130 nM, 4.7 nM, 8.2 nM and 120 nM.
`CC(C)NCC(O)c1ccc(O)c(O)c1` (stereo not drawn) [ISOPROTERENOL] displayed an EC50 in experiment [1] of 58 nM.
